# From US20080261994A1, “CYCLOPROPANE COMPOUNDS AND PHARMACEUTICAL USE THEREOF” (Japan Tobacco Inc., priority 2003, published 2008)
# Read-outs that look alike come from different tables or passages of the source.
# Assays:
# Assay type in all cases: biochemical
# [1] = biological target: T1, Recombinant Human MMP-13 (Homo sapiens, UniProt P45452); test: MMP-13 inhibitory activity (MMP-13 specific fluorescent substrate with quencher)
# T1 construct: purchased R&D systems 511-MM
# Protocol: Inhibitory activity of tested compounds on MMP-13 was measured using MMP-13 specific fluorescent substrate with quencher.
# (§1) The enzyme and substrate were diluted with Tris-HCl buffer, and test compounds were diluted with dimethyl sulfoxide (DMSO).
# Test compounds and the enzyme (Recombinant Human MMP-13: R&D systems, 511-MM) were added into 96-well plate. The reaction was initiated by adding synthetic substrate (7-MCA-Pro-CHA-Gly-NVal-His-Ala-DPA: enzyme systems products, Met-06) into the plate. After incubation at 25° C. for 1 h, the reaction was terminated by addition of reaction terminating solution containing acetic acid. Fluorescence intensity of each well was measured (Ex: 325 nm, […] 405 nm) and the MMP-13 inhibitory activity of the compound in each well (%) was calculated based on the values of enzyme-free well and inhibitor-free well. The inhibitory activity of the compound was represented as IC50 (μM).
# [2] = biological target: T2, MMP-1 (Homo sapiens, UniProt P03956); test: MMP-1 inhibitory action (Type I collagen Activity Measurement kit, FITC-labeled collagen type I)
# T2 sequence (P03956 100-469): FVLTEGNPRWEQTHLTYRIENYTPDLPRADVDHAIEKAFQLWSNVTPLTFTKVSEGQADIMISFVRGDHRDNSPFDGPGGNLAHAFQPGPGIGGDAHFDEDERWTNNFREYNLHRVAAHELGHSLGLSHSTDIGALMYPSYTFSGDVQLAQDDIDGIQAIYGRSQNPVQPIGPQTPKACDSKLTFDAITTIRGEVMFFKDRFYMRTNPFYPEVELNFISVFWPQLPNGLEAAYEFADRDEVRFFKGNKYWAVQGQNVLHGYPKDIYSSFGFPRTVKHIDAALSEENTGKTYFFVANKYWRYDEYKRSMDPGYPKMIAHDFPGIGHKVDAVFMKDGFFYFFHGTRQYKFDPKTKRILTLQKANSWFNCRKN
# Protocol: For MMP-1 Assay, Type I collagen Activity Measurement kit (YAGAI YU-72013) modified to a 96-well plate format was used.
# The principle of the kit is based on the property of collagen that becomes soluble in ethanol after being cleaved by MMP-1.
# as §1
# The enzyme and test compounds were added into 96-well plate, and fluorescein isothiocianate (FITC)-labeled collagen type I was added as a substrate and the mixture was incubated at 37° C. for 3 hr.
# The reaction was terminated by addition of Tris-HCl buffer containing ethanol. After centrifugation, the supernatant containing denatured substrate was transferred to another 96-well plate. The collagenase activity of MMP-1 was determined by measuring FITC fluorescence intensity (excitation wavelength 485 nm, emission wavelength 530 nm) of each well. The inhibitory activity of the compound in each well (%) was calculated based on the values of enzyme-free well and inhibitor-free well. The inhibitory activity of the compound was represented as IC50 (μM).
# [3] = biological target: T3, aggrecanase-1 (Homo sapiens, UniProt O75173); test: Aggrecanase-1 inhibitory action (Particle Assay, GAG release from aggrecan-containing polyacrylamide particles)
# T3 sequence (O75173 213-837): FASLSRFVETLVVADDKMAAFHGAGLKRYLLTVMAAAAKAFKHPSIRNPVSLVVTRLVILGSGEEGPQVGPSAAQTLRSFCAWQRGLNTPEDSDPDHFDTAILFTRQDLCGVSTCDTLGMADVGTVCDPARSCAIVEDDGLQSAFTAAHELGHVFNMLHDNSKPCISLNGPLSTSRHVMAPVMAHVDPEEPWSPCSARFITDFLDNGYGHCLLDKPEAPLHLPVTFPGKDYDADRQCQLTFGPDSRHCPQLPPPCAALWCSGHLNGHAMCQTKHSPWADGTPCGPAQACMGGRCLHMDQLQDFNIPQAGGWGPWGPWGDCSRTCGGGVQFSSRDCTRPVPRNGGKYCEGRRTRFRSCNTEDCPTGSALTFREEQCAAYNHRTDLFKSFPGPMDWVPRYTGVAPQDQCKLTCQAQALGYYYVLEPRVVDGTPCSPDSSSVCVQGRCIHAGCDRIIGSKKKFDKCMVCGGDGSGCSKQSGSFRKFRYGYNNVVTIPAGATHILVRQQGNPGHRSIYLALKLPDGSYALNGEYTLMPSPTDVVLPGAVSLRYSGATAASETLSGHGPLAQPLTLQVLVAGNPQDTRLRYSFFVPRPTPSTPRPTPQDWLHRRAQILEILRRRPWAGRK
# Protocol: Particle Assay was used for determination of aggrecanase activity.
# as §1
# Test compounds and the enzyme were added into 96-well plate, and polyacrylamide particles containing aggrecan were added as a substrate and the mixture was incubated at 37° C. for 15 hr.
# After incubation, the supernatant was transferred to another plate, and mixed with 1,9-dimethylmethylene blue. The absorbence at 595 nm was measured to quantify the amount of glycosaminoglycan (GAG) released in the reaction supernatant. Whale chondroitin sulfate was used as the standard of GAG. The inhibitory activity of the compound in each well (%) was calculated based on the values of enzyme-free well and inhibitor-free well. The inhibitory activity of the compound was represented as […] (μM).
# [4] = Experimental Example 3, read-out: IC50 MMP13
# [5] = Experimental Example 2, read-out: IC50 MMP1
# [6] = Experimental Example 1, read-out: IC50 AG1
# [7] = Recombinant Human MMP-13, fluorescent substrate, 25° C. for 1 h, read-out: IC50 MMP13 (Experimental Example 3)
# [8] = MMP-1 inhibitory action, FITC-labeled collagen type I, 37° C. for 3 hr, read-out: IC50 MMP1 (Experimental Example 2)
# [9] = aggrecanase-1 inhibitory action, read-out: IC50 AG1 (Experimental Example 1)
"IC50 [1, 4]","IC50 [2, 5]","IC50 [3, 6]","IC50 [1, 7]","IC50 [2, 8]","IC50 [3, 9]",SMILES
< 1000 nM,≥ 10000 nM,< 1000 nM,,,,CN(C)CCSCC1(c2ccccc2)CC1(NS(=O)(=O)c1ccc(-c2ccc(Cl)cc2)s1)C(=O)O (stereo not drawn) [Example 2-337]
< 1000 nM,≥ 1000 nM,< 100 nM,,,,O=C(O)CSCC1(c2ccccc2)CC1(NS(=O)(=O)c1ccc(-c2ccc(Cl)cc2)s1)C(=O)O (stereo not drawn) [Example 2-358]
< 100 nM,< 100 nM,< 100 nM,,,,CCC1C(c2ccccc2)C1(NS(=O)(=O)c1ccc(-c2cc(C(F)(F)F)on2)s1)C(=O)O (stereo not drawn) [Example 2-299]
,,,< 100 nM,≥ 10000 nM,< 100 nM,O=C(O)CCc1cccc(C2CC2(NS(=O)(=O)c2ccc(-c3ccc(Cl)cc3)s2)C(=O)O)c1 (stereo not drawn) [Example 2-180]
,,,< 100 nM,≥ 10000 nM,< 100 nM,CS(=O)(=O)Nc1cccc(C2CC2(NS(=O)(=O)c2ccc(-c3ccc(Cl)cc3)cc2)C(=O)O)c1 (stereo not drawn) [Example 1-38]
,,,< 100 nM,< 1000 nM,< 100 nM,C[C@]1(c2ccccc2)C[C@@]1(NS(=O)(=O)c1ccc(-c2cc(CF)sn2)s1)C(=O)O [Example 2-121]
< 100 nM,≥ 1000 nM,< 100 nM,,,,O=C(NCCCC1(c2ccccc2)CC1(NS(=O)(=O)c1ccc(-c2ccc(Cl)cc2)s1)C(=O)O)OC1CCCC1 (stereo not drawn) [Example 2-298]
,,,< 1000 nM,≥ 10000 nM,< 1000 nM,CN1CCN(C(=O)c2ccccc2C2CC2(NS(=O)(=O)c2ccc(-c3ccc(Cl)cc3)s2)C(=O)O)CC1 (stereo not drawn) [Example 2-216]
< 100 nM,≥ 1000 nM,< 100 nM,,,,O=C(O)C1(NS(=O)(=O)c2ccc(-c3ccc(Cl)cc3)s2)C2CCOc3ccccc3C21 (stereo not drawn) [Example 2-369]
< 100 nM,< 1000 nM,< 100 nM,,,,CC1[C@H](c2ccccc2)[C@]1(NS(=O)(=O)c1ccc(-c2ccc3c(c2)OCO3)s1)C(=O)O (stereo partly drawn) [Example 2-470]
,,,< 100 nM,< 100 nM,< 100 nM,"C[C@@H]1[C@H](c2ccccc2)[C@]1(NS(=O)(=O)c1ccc(-c2cc(C(C)(F)F)on2)s1)C(=O)O [Example 2-9, (1S,2R,3R)-1-{5-[5-(1,1-difluoro-ethyl)-isoxazol-3-yl]-thiophene-2-sulfonylamino}-2-methyl-3-phenyl-cyclopropanecarboxylic acid]"
≥ 1000 nM,≥ 1000 nM,≥ 1000 nM,,,,CC1[C@H](c2ccccc2)[C@]1(NS(=O)(=O)N1CCN(c2ccc(Cl)cc2)C(=O)C1)C(=O)O (stereo partly drawn) [Example 2-502]
< 100 nM,≥ 1000 nM,≥ 1000 nM,,,,CC1[C@H](c2ccccc2)[C@]1(NS(=O)(=O)c1ccc(-n2cc(C(F)(F)F)cn2)nc1)C(=O)O (stereo partly drawn) [Example 2-556]
< 100 nM,< 1000 nM,< 100 nM,,,,CC1[C@H](c2ccccc2)[C@]1(NS(=O)(=O)c1ccc2c(c1)Cc1cc(Cl)ccc1-2)C(=O)O (stereo partly drawn) [Example 2-569]
,,,< 1000 nM,≥ 1000 nM,< 1000 nM,O=C(O)C1(NS(=O)(=O)c2ccc(-c3ccc(Cl)cc3)cc2)CC1c1cccc(Oc2ccc(Cl)cc2)c1 (stereo not drawn) [Example 1-11]
≥ 1000 nM,,≥ 1000 nM,,,,C[C@]1(c2ccccc2)C[C@@]1(NS(=O)(=O)c1ccc(N2CCC(F)(F)CC2)s1)C(=O)O [Example 2-455]
,,,< 1000 nM,,≥ 1000 nM,COc1ccc(-c2ccc(S(=O)(=O)N[C@@]3(C(=O)O)C[C@@H]3c3ccccc3)s2)nn1 [Example 2-33]
,,,≥ 10000 nM,,≥ 1000 nM,O=C(O)C1(NS(=O)(=O)N2CCN(c3cccc(C(F)(F)F)c3)CC2)CC1c1ccccc1 (stereo not drawn) [Example 2-28]

"IC50 [1, 4]","IC50 [2, 5]","IC50 [3, 6]","IC50 [1, 7]","IC50 [2, 8]","IC50 [3, 9]",SMILES
,,,< 1000 nM,,≥ 1000 nM,N#Cc1ccc(-c2ccc(S(=O)(=O)N[C@@]3(C(=O)O)C[C@@H]3c3ccccc3)s2)s1 [Example 2-34]
,,,< 1000 nM,,≥ 1000 nM,O=C(O)[C@]1(NS(=O)(=O)c2ccc(-c3nsc(CF)n3)s2)C[C@@H]1c1ccccc1 [Example 2-115]
≥ 10000 nM,,≥ 1000 nM,,,,Cn1nncc1-c1ccc(S(=O)(=O)N[C@@]2(C(=O)O)C[C@]2(C)c2ccccc2)s1 [Example 2-586]
,,,≥ 1000 nM,,≥ 1000 nM,O=C(O)C1(NS(=O)(=O)N2CCN(c3ccc(Cl)c(C(F)(F)F)c3)CC2)CC1c1ccccc1 (stereo not drawn) [Example 2-30]
,,,≥ 1000 nM,,≥ 1000 nM,O=C(O)C1(NS(=O)(=O)N2CCN(c3cccc(Cl)c3)CC2)CC1c1ccccc1 (stereo not drawn) [Example 2-31]
≥ 1000 nM,,≥ 1000 nM,,,,CC1[C@H](c2ccccc2)[C@]1(NS(=O)(=O)c1ccc(-c2cnc3ccccc3n2)s1)C(=O)O (stereo partly drawn) [Example 2-456]
≥ 1000 nM,,≥ 1000 nM,,,,C[C@]1(c2ccccc2)C[C@@]1(NS(=O)(=O)c1ccc(-c2ccc(N)cc2)s1)C(=O)O [Example 2-583]
,,,< 100 nM,,≥ 1000 nM,O=C(O)C1(NS(=O)(=O)N2CCN(c3ccc(C(F)(F)F)cc3)CC2)CC1c1ccccc1 (stereo not drawn) [Example 2-29]
≥ 1000 nM,,≥ 1000 nM,,,,C[C@]1(c2ccccc2)C[C@@]1(NS(=O)(=O)c1csc2ccc(-c3ccccc3)cc12)C(=O)O [Example 2-585]
,,,< 100 nM,,≥ 1000 nM,O=C(O)[C@]1(NS(=O)(=O)c2ccc(-c3cc4ccccn4c3)s2)C[C@@H]1c1ccccc1 [Example 2-135]
,,,< 1000 nM,,≥ 1000 nM,O=C(O)C1(NS(=O)(=O)c2ccc(-c3ccc(Cl)cc3)s2)CC1Cc1ccccc1 (stereo not drawn) [Example 2-38]
,,,,≥ 1000 nM,< 1000 nM,CN(C)C(=O)COc1cccc(C2CC2(NS(=O)(=O)c2ccc(-c3ccc(Cl)cc3)cc2)C(=O)O)c1 (stereo not drawn) [Example 1-114]
,,,,≥ 10000 nM,< 100 nM,O=C(COc1ccccc1C1CC1(NS(=O)(=O)c1ccc(-c2ccc(Cl)cc2)s1)C(=O)O)N1CCOCC1 (stereo not drawn) [Example 1-146]
,,,,≥ 1000 nM,< 1000 nM,O=C(O)C1(NS(=O)(=O)c2ccc(-c3ccc(Cl)cc3)cc2)CC1c1cccc(O)c1 (stereo not drawn) [Example 1-44]
,≥ 1000 nM,< 1000 nM,,,,Cc1cnc(-c2ccc(S(=O)(=O)N[C@@]3(C(=O)O)C(C)[C@@H]3c3ccccc3)s2)o1 (stereo partly drawn) [Example 2-417]
,,,,≥ 10000 nM,< 1000 nM,CC(C)NC(=O)COc1ccccc1C1CC1(NS(=O)(=O)c1ccc(-c2ccc(Cl)cc2)s1)C(=O)O (stereo not drawn) [Example 1-147]
,,,,≥ 10000 nM,≥ 1000 nM,O=C1Nc2ccccc2C2CC12NS(=O)(=O)c1ccc(-c2ccc(Cl)cc2)s1 (stereo not drawn) [Example 2-218]
,,,,≥ 1000 nM,< 1000 nM,O=C(O)C1(NS(=O)(=O)c2ccc(-c3ccc(Cl)cc3)cc2)CC1c1cccc(NCc2ccccc2)c1 (stereo not drawn) [Example 1-43]
